From BindingDB's records for doi:10.1016/j.ejmech.2018.07.023 (University of Copenhagen, 2018)
*1 amine or outer side, *2 acyl side, *3 side chain or, on linkers, in order; H or OH if unused. Where a SMILES comes first, the peptide text is derived from it. Bridges are numbered along the chain shown (N, C = ends). [ ]: non-standard residue; d: D form. Leu(3R-O(AcLeu(3R-OH))) = CC(=O)N[C@H](C(=O)O[C@H](C(C)C)[C@H](N)C(=O)O)[C@H](O)C(C)C; X1 = CC(C)[C@@H](O[*:3])[C@H](N[*:1])C(=O)[*:2]; NMeT = CN[C@H](C(=O)O)[C@@H](C)O; dPhLac = O=C(O)[C@H](O)Cc1ccccc1; NMeA = CN[C@@H](C)C(=O)O; NMeDha = C=C(NC)C(=O)O

Assay: Inhibition of recombinant rat Gi coupled mGlu2 receptor expressed in CHO cells assessed as suppression of L-glutamate-induced decrease in cAMP level pretreated for 1 hr followed by L-glutamate/forskolin addition and measured after 30 mins by FRET assay

SMILES	IC50 [µM]
C=C1C(=O)N[C@@H](C)C(=O)N(C)[C@@H](C)C(=O)N[C@@H]([C@H](OC(=O)[C@@H](NC(C)=O)[C@H](O)C(C)C)C(C)C)C(=O)N(C)[C@@H]([C@@H](C)OC)C(=O)O[C@@H](C)[C@H](NC(C)=O)C(=O)O[C@H](Cc2ccccc2)C(=O)N1C	> 50
C=C1C(=O)N[C@@H](C)C(=O)N(C)[C@@H](C)C(=O)N[C@@H]([C@H](OC(=O)[C@@H](NC(=O)CCCCC)[C@H](O)C(C)C)C(C)C)C(=O)N(C)[C@@H]([C@@H](C)OC)C(=O)O[C@H](C)[C@H](NC(C)=O)C(=O)O[C@H](Cc2ccccc2)C(=O)N1C	> 50
C=C1C(=O)N[C@@H](C)C(=O)N(C)[C@@H](C)C(=O)N[C@@H]([C@H](OC(=O)[C@@H](NC(C)=O)[C@H](O)C(C)C)C(C)C)C(=O)N(C)[C@@H]([C@@H](C)OC)C(=O)O[C@H](C)[C@H](NC(C)=O)C(=O)O[C@H](CC(C)C)C(=O)N1C	> 100
C=C1C(=O)N[C@@H](C)C(=O)N(C)[C@@H](C)C(=O)N[C@@H]([C@H](OC(=O)[C@@H](NC(C)=O)[C@H](O)C(C)C)C(C)C)C(=O)N(C)[C@@H]([C@@H](C)OC)C(=O)OC[C@H](NC(C)=O)C(=O)O[C@H](Cc2ccccc2)C(=O)N1C	> 50
C=C1C(=O)N[C@@H](C)C(=O)N(C)[C@@H](C)C(=O)N[C@@H]([C@H](OC(=O)[C@@H](NC(=O)c2ccccc2)[C@H](O)C(C)C)C(C)C)C(=O)N(C)[C@@H]([C@@H](C)OC)C(=O)O[C@H](C)[C@H](NC(C)=O)C(=O)O[C@H](Cc2ccccc2)C(=O)N1C	> 100
C=C1C(=O)N[C@@H](C)C(=O)N(C)[C@@H](C)C(=O)N[C@@H]([C@H](OC(=O)[C@@H](NC(C)=O)[C@H](O)C(C)C)C(C)C)C(=O)N(C)[C@@H]([C@@H](C)OC)C(=O)O[C@H](C)[C@H](NC(C)=O)C(=O)O[C@H](Cc2ccccc2)C(=O)N1C	> 100
CO[C@H](C)[C@H]1C(=O)O[C@H](C)[C@H](NC(C)=O)C(=O)O[C@H](CC(C)C)C(=O)N(C)[C@H](CO)C(=O)N[C@@H](C)C(=O)N(C)[C@@H](C)C(=O)N[C@@H]([C@H](OC(=O)[C@@H](NC(C)=O)[C@H](O)C(C)C)C(C)C)C(=O)N1C	> 100
C=C1C(=O)N[C@@H](C)C(=O)N(C)[C@@H](C)C(=O)N[C@@H]([C@H](OC(=O)[C@@H](NC(C)=O)[C@H](O)C(C)C)C(C)C)C(=O)N(C)[C@@H]([C@@H](C)OC)C(=O)O[C@H](C(C)C)[C@H](NC(C)=O)C(=O)O[C@H](Cc2ccccc2)C(=O)N1C (Ac-[X1][dPhLac][NMeDha]A[NMeA][Leu(3R-O(AcLeu(3R-OH)))][NMeT](Me); ester 1-C)	> 50
